The text below walks through data of patent publication US10206937B2, “Boronic acid derivatives and therapeutic uses thereof” (Qpex Biopharma, Inc., priority 2014, dated 2019).

The target in one assay is T1, VIM-1 (Pseudomonas aeruginosa, UniProt A0A0F7KYQ8).
T1 construct: made in house; host or cells: ECM6711 strain carrying pUCP24-VIM-1 plasmid; culture supernatant used unpurified
The assay is described as follows: biochemical. The settings on record: cleavage of nitrocefin (200 uM) by VIM-1 supernatant.

Assay [1] addresses T2, NDM-1 (Klebsiella pneumoniae, UniProt C7C422). The assay is described as follows: Inhibition of purified class B carbapenemase NDM-1 (Ki, imipenem substrate). The class given is biochemical. The following applies: NDM-1, substrate imipenem; read-out: Ki NDM-1, Imipenem.
Assay [2] addresses T2, NDM-1. In words: biochemical. The settings on record: cleavage of imipenem (100 uM) by NDM-1; read-out: Ki, Imipenem.
The target of assay [3] is T3, purified class A, C and D enzymes (UniProt P0AD64, L31Q/G234S/E235K, species not given).
T3 construct: Ki (SHV-12, NCF); other: purified SHV-12; nitrocefin reporter substrate
T3 sequence (P0AD64 1-286 L31Q/G234S/E235K): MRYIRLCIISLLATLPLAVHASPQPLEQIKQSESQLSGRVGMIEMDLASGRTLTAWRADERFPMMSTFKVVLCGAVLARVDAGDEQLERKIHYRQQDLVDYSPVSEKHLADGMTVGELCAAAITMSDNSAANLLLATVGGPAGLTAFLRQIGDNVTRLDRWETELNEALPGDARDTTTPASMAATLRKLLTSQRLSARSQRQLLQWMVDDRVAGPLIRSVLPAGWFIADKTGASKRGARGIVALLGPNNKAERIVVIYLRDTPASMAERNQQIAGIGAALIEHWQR
The format is biochemical. The settings on record: read-out: Ki (SHV-12, NCF); purified SHV-12; nitrocefin reporter substrate.

Assay [4] has as its target purified class A, C and D enzymes (Escherichia coli, UniProt Q9L5C7). The format is biochemical. The following applies: purified CTX-M-14; nitrocefin reporter substrate.
Assay [5] has as its target T4, purified class A, C and D enzymes (UniProt Q6XEC0).
T4 construct: rows headed: Ki (OXA-48, NCF); other: purified OXA-48; nitrocefin reporter substrate
The format is biochemical. The following applies: read-out: Ki (OXA-48, NCF); purified OXA-48; nitrocefin reporter substrate.

The target in assay [6] is purified class A, C and D enzymes (Enterobacter cloacae, UniProt P05364). The class given is biochemical. The following applies: purified P99/AmpC of ECL; nitrocefin reporter substrate.
For assay [7], the target named is T5, purified class A, C and D enzymes (UniProt Q9F663).
T5 construct: rows headed: Ki (KPC-2, NCF); other: purified KPC-2; nitrocefin reporter substrate
The class given is biochemical. The settings on record: read-out: Ki (KPC-2, NCF); purified KPC-2; nitrocefin reporter substrate.

SMILES strings stand for the structures.

T2 sequence (C7C422 29-270, looked up, species assumed): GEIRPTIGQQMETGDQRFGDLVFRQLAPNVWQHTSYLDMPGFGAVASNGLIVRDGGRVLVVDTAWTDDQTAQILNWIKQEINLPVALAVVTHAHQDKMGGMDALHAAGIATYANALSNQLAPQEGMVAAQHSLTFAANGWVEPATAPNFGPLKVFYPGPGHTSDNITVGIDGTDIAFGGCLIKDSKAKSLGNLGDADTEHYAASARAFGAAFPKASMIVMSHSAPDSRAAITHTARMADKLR
purified class A, C and D enzymes (Enterobacter cloacae, UniProt P05364), sequence (P05364 21-381): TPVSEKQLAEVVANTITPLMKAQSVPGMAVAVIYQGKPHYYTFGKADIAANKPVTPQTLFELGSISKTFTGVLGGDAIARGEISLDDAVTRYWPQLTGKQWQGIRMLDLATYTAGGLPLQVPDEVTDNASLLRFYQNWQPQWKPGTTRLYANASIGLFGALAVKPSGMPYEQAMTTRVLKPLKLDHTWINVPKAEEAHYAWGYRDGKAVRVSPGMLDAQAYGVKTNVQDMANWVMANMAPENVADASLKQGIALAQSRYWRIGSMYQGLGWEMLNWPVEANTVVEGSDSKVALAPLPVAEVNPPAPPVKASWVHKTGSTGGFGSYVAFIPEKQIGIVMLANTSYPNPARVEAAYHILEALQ
purified class A, C and D enzymes (Escherichia coli, UniProt Q9L5C7), sequence (Q9L5C7 entry or part of it): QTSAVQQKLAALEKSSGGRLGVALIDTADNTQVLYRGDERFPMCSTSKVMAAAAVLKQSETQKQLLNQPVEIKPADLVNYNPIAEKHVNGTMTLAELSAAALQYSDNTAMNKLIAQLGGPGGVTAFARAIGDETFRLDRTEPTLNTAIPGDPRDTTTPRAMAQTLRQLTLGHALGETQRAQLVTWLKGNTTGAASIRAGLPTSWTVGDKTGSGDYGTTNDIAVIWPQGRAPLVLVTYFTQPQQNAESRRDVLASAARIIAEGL

`COc1ccc2c(c1C(=O)O)OB(O)[C@@H](Sc1nnc(Sc3nnc(N)s3)s1)C2` [Compound 111, (3R)-3-[[5-[(5-amino-1,3,4-thiadiazol-2-yl)sulfanyl]-1,3,4-thiadiazol-2-yl]sulfanyl]-2-hydroxy-7-methoxy-3,4-dihydro-1,2-benzoxaborinine-8-carboxylic acid]: at VIM-1, the IC50 was less than 1000 nM. Further, the inhibition constant Ki at NDM-1 [1] was greater than 100 nM; on NDM-1 [2], greater than 100 nM; in assay [3], less than 100 nM; in assay [5] it was greater than 1000 nM; in assay [7] it was 100 to 1000 nM. In addition, the “Ki (CTX-M-14, NCF)” value in assay [4] is given as “X (Less than 0.1 μM)”. Besides, the “Ki (P99/AmpC of ECL, NCF)” value in assay [6] was “Y (0.1 μM to 1 μM)”.
In the case of `Nc1ncc(S[C@H]2Cc3ccc(F)c(C(=O)O)c3OB2O)s1` [Compound 52, (3R)-3-(2-aminothiazol-5-yl)sulfanyl-7-fluoro-2-hydroxy-3,4-dihydro-1,2-benzoxaborinine-8-carboxylic acid], the IC50 on VIM-1 is less than 1000 nM. Also, the Ki is greater than 100 nM at NDM-1 [1]; greater than 100 nM at NDM-1 [2]; less than 100 nM in assay [3]; less than 100 nM in assay [5]; less than 100 nM in assay [7]. Further, the “Ki (CTX-M-14, NCF)” value in assay [4] is “X (Less than 0.1 μM)”. Further, the “Ki (P99/AmpC of ECL, NCF)” value in assay [6] is “Y (0.1 μM to 1 μM)”.
Consider `COc1c(F)cc2c(c1C(=O)O)OB(O)[C@@H](Sc1nnc(N)s1)C2` [Compound 114, (3R)-3-[(5-amino-1,3,4-thiadiazol-2-yl)sulfanyl]-6-fluoro-2-hydroxy-7-methoxy-3,4-dihydro-1,2-benzoxaborinine-8-carboxylic acid], for which, at VIM-1, the IC50 was less than 1000 nM. Moreover, the inhibitory constant (Ki) is 10 to 100 nM on NDM-1 [1]; 10 to 100 nM on NDM-1 [2]; less than 100 nM in assay [3]; less than 100 nM in assay [5]; 100 to 1000 nM in assay [7]. Further, in assay [4], the “Ki (CTX-M-14, NCF)” value is reported as “X (Less than 0.1 μM)”. For the same compound, the “Ki (P99/AmpC of ECL, NCF)” value in assay [6] is “Y (0.1 μM to 1 μM)”.
Turning to `Nc1nnc(S[C@H]2Cc3ccc(O)c(C(=O)O)c3OB2O)s1` [Compound 44, (R)-3-(5-amino-1,3,4-thiadiazol-2-ylthio)-2,7-dihydroxy-3,4-dihydro-2H-benzo[e][1,2]oxaborinine-8-carboxylic acid], the concentration for half-maximal inhibition (IC50) on VIM-1 is less than 1000 nM. The Ki is less than 10 nM on NDM-1 [1]; less than 10 nM on NDM-1 [2]; less than 100 nM in assay [3]; less than 100 nM in assay [5]; less than 100 nM in assay [7]. Also, in assay [4], the “Ki (CTX-M-14, NCF)” value is on record as “X (Less than 0.1 μM)”. The “Ki (P99/AmpC of ECL, NCF)” value in assay [6] was “X (Less than 0.1 μM)”.
`COc1ccc2c(c1C(=O)O)OB(O)[C@@H](SCCN1CCNCC1)C2` [Compound 72, (3R)-2-hydroxy-7-methoxy-3-(2-piperazin-1-ylethylsulfanyl)-3,4-dihydro-1,2-benzoxaborinine-8-carboxylic acid] had an IC50 at VIM-1 of less than 1000 nM. Moreover, the inhibition constant Ki was greater than 100 nM on NDM-1 [1]; greater than 100 nM at NDM-1 [2]; less than 100 nM in assay [3]; less than 100 nM in assay [5]; less than 100 nM in assay [7]. Besides, in assay [4], the “Ki (CTX-M-14, NCF)” value was “X (Less than 0.1 μM)”. For the same compound, the “Ki (P99/AmpC of ECL, NCF)” value in assay [6] is recorded as “Y (0.1 μM to 1 μM)”.
The compound `COc1ccc2c(c1C(=O)O)OB(O)[C@@H](Sc1nnc(SCCN3CCNCC3)s1)C2` [Compound 68, (3R)-2-hydroxy-7-methoxy-3-[[5-(2-piperazin-1-ylethylsulfanyl)-1,3,4-thiadiazol-2-yl]sulfanyl]-3,4-dihydro-1,2-benzoxaborinine-8-carboxylic acid] gave a 50% inhibitory concentration (IC50) against VIM-1 of less than 1000 nM. Besides, the inhibition constant Ki at NDM-1 [1] was greater than 100 nM; at NDM-1 [2] it was greater than 100 nM; in assay [3] it was less than 100 nM; in assay [5] it was less than 100 nM; in assay [7] it was 100 to 1000 nM. Moreover, in assay [4], the “Ki (CTX-M-14, NCF)” value is “X (Less than 0.1 μM)”. Further, the “Ki (P99/AmpC of ECL, NCF)” value in assay [6] is recorded as “Y (0.1 μM to 1 μM)”.
Consider `COc1ccc2c(c1C(=O)O)OB(O)[C@@H](Sc1nccs1)C2` [Compound 47, (R)-2-hydroxy-7-methoxy-3-(thiazol-2-ylthio)-3,4-dihydro-2H-benzo[e][1,2]oxaborinine-8-carboxylic acid], for which, at VIM-1, the IC50 is less than 1000 nM. Besides, the Ki at NDM-1 [1] was 10 to 100 nM; at NDM-1 [2], greater than 100 nM; in assay [3], less than 100 nM; in assay [5] it was less than 100 nM; in assay [7], 100 to 1000 nM. The “Ki (CTX-M-14, NCF)” value in assay [4] was “X (Less than 0.1 μM)”. In addition, the “Ki (P99/AmpC of ECL, NCF)” value in assay [6] was “Y (0.1 μM to 1 μM)”.
For `COc1ccc2c(c1C(=O)O)OB(O)[C@@H](Sc1ncn(CCCC(=O)O)n1)C2` [Compound 40, (R)-3-(1-(3-carboxypropyl)-1H-1,2,4-triazol-3-ylthio)-2-hydroxy-7-methoxy-3,4-dihydro-2H-benzo[e][1,2]oxaborinine-8-carboxylic acid], the concentration for half-maximal inhibition (IC50) on VIM-1 is no less than 1000 nM. Besides, the inhibition constant Ki was greater than 100 nM at NDM-1 [1]; greater than 100 nM on NDM-1 [2]; less than 100 nM in assay [3]; less than 100 nM in assay [5]; less than 100 nM in assay [7]. For the same compound, in assay [4], the “Ki (CTX-M-14, NCF)” value is “X (Less than 0.1 μM)”. The “Ki (P99/AmpC of ECL, NCF)” value in assay [6] is given as “X (Less than 0.1 μM)”.
Compound `COc1ccc2c(c1C(=O)O)OB(O)[C@@H](Sc1nnc(OCCN)s1)C2` [Compound 117, (3R)-3-[[5-(2-aminoethoxy)-1,3,4-thiadiazol-2-yl]sulfanyl]-2-hydroxy-7-methoxy-3,4-dihydro-1,2-benzoxaborinine-8-carboxylic acid] showed an IC50 on VIM-1 of less than 1000 nM. Further, the inhibition constant (Ki) is less than 10 nM on NDM-1 [1]; less than 10 nM on NDM-1 [2]; less than 100 nM in assay [3]; less than 100 nM in assay [5]; 100 to 1000 nM in assay [7]. The “Ki (CTX-M-14, NCF)” value in assay [4] is “X (Less than 0.1 μM)”. Also, the “Ki (P99/AmpC of ECL, NCF)” value in assay [6] is “Y (0.1 μM to 1 μM)”.
Take `O=C(O)c1c(OCCF)ccc2c1OB(O)[C@@H](Sc1nncs1)C2` [Compound 87, (3R)-7-(2-fluoroethoxy)-2-hydroxy-3-(1,3,4-thiadiazol-2-ylsulfanyl)-3,4-dihydro-1,2-benzoxaborinine-8-carboxylic acid]: the concentration for half-maximal inhibition (IC50) on VIM-1 is less than 1000 nM. Also, the Ki was 10 to 100 nM at NDM-1 [1]; greater than 100 nM on NDM-1 [2]; less than 100 nM in assay [3]; less than 100 nM in assay [5]; 100 to 1000 nM in assay [7]. The “Ki (CTX-M-14, NCF)” value in assay [4] is listed as “X (Less than 0.1 μM)”. The “Ki (P99/AmpC of ECL, NCF)” value in assay [6] was “Y (0.1 μM to 1 μM)”.
In turn, `NC(=O)c1cnc(S[C@H]2Cc3ccc(F)c(C(=O)O)c3OB2O)s1` [Compound 53, (3R)-3-(5-carbamoylthiazol-2-yl)sulfanyl-7-fluoro-2-hydroxy-3,4-dihydro-1,2-benzoxaborinine-8-carboxylic acid] returned a concentration for half-maximal inhibition (IC50) on VIM-1 of less than 1000 nM. For the same compound, the inhibition constant Ki on NDM-1 [1] was greater than 100 nM; at NDM-1 [2], greater than 100 nM; in assay [3], less than 100 nM; in assay [5], less than 100 nM; in assay [7], less than 100 nM. The “Ki (CTX-M-14, NCF)” value in assay [4] is “X (Less than 0.1 μM)”. Also, the “Ki (P99/AmpC of ECL, NCF)” value in assay [6] was “Y (0.1 μM to 1 μM)”.
For the compound `Nc1nnc(CCS[C@H]2Cc3ccc(F)c(C(=O)O)c3OB2O)s1` [Compound 50, (3R)-3-[2-(5-amino-1,3,4-thiadiazol-2-yl)ethylsulfanyl]-7-fluoro-2-hydroxy-3,4-dihydro-1,2-benzoxaborinine-8-carboxylic acid], on VIM-1, the IC50 is less than 1000 nM. For the same compound, the Ki at NDM-1 [1] is greater than 100 nM; at NDM-1 [2], greater than 100 nM; in assay [3] it was less than 100 nM; in assay [5] it was less than 100 nM; in assay [7], less than 100 nM. In addition, in assay [4], the “Ki (CTX-M-14, NCF)” value is “X (Less than 0.1 μM)”. Further, the “Ki (P99/AmpC of ECL, NCF)” value in assay [6] was “X (Less than 0.1 μM)”.
At VIM-1, `COc1ccc2c(c1C(=O)O)OB(O)[C@@H](SC1CN(C3=NCCS3)C1)C2` [Compound 65, (3R)-3-[1-(4,5-dihydrothiazol-2-yl)azetidin-3-yl]sulfanyl-2-hydroxy-7-methoxy-3,4-dihydro-1,2-benzoxaborinine-8-carboxylic acid] registered a half-maximal inhibitory concentration (IC50) of no less than 1000 nM. The inhibitory constant (Ki) is greater than 100 nM on NDM-1 [1]; greater than 100 nM at NDM-1 [2]; less than 100 nM in assay [3]; less than 100 nM in assay [5]; less than 100 nM in assay [7]. For the same compound, in assay [4], the “Ki (CTX-M-14, NCF)” value was “X (Less than 0.1 μM)”. Besides, the “Ki (P99/AmpC of ECL, NCF)” value in assay [6] was “Z (Greater than 1 μM)”.

In general, IC50 refers to the concentration that gives 50% inhibition. In general, Ki refers to a measure of affinity in units of concentration, obtained from inhibition or displacement.
